According to US9597407B2, “Targeted antimicrobial moieties” (C3 Jian, Inc., priority 2009, dated 2017):
“Also recorded” adds a separate entry of the source. Square brackets hold non-standard residues; d marks the D form. Ends that are not written are not given here. Aib = CC(C)(N)C(=O)O

System: bacteria
Assay: Binding of targeting peptides to microorganisms (Table 3)
Settings: peptide binding in aqueous buffers that varied depending on peptide solubility; preferably 1x PBS

Row | Substance | Target(s) (microorganism bound by the targeting peptide)
1 | PF-782 (TGPRRGIDLTSNRALSEVLDEGLELNSRK; Peptide with targeting and/or antimicrobial activity) | Mycobacteria spp.
2 | PF-783 (FTSEVRGVFTYRVNKAGLITNMRGYWNLDMMTFGNQE; Peptide with targeting and/or antimicrobial activity) | Mycobacteria spp.
3 | PF-784 (MAMTTVDNIVGLVIAVALMAFLFAALLFPEKF; Peptide with targeting and/or antimicrobial activity) | Mycobacteria spp.
4 | PF-785 (MRPQHSPAGKAFVVKKITHEQS; Peptide with targeting and/or antimicrobial activity) | Mycobacteria spp.
5 | PF-786 (LSERERRRLKRGII; Peptide with targeting and/or antimicrobial activity) | Mycobacteria spp.
6 | PF-787 (MTERQRRALLKQHPEVVSWSDYLEKRKRRTGTAG; Peptide with targeting and/or antimicrobial activity) | Mycobacteria spp.
7 | PF-788 (GLITVFAGTARILQLRRAAKKTHAAALR; Peptide with targeting and/or antimicrobial activity) | Mycobacteria spp.
8 | PF-789 (PRGAQSGHG; Peptide with targeting and/or antimicrobial activity) | Mycobacteria spp.
9 | PF-790 (PAGPDHLDQRDHR; Peptide with targeting and/or antimicrobial activity) | Mycobacteria spp.
10 | PF-791 (IFLTTQNTDYSEHNAA; Peptide with targeting and/or antimicrobial activity) | S. mutans
11 | PF-792 (ALHASGIQAI; Peptide with targeting and/or antimicrobial activity) | S. mutans
12 | PF-793 (YTQ[Aib]NNASAYAMLLTNKDTVP; ends and bridges not checked) | S. mutans
13 | PF-794 (NLYFENQGN; Peptide with targeting and/or antimicrobial activity) | S. mutans
14 | PF-795 (ALHKSGIQVIADWVPDQIYN; Peptide with targeting and/or antimicrobial activity) | S. mutans
15 | PF-796 (YTQSNIPTAYALMLSNKDSI; Peptide with targeting and/or antimicrobial activity) | S. mutans
16 | PF-797 (WYYFDNNGYM; Peptide with targeting and/or antimicrobial activity) | S. mutans
17 | PF-798 (ALHSKGIKVMADWVPDQMYA; Peptide with targeting and/or antimicrobial activity) | S. mutans

Row | Substance | Target(s) (microorganism bound by the targeting peptide)
18 | PF-799 (YTHYNTALSYALLLTNKSSVP; Peptide with targeting and/or antimicrobial activity) | S. mutans
19 | PF-800 (WYYFDNNGYM; Peptide with targeting and/or antimicrobial activity) | S. mutans
20 | PF-C003 (FCSVDHDVITIAADHVKQGAEA; Peptide with targeting and/or antimicrobial activity) | A. naeslundii; also recorded: P. gingivalis; also recorded: S. mutans
21 | PF-C008 (AQPRRTWLVNFGEVPSPGLTNDGMPDH; Peptide with targeting and/or antimicrobial activity) | A. naeslundii
22 | PF-C034 (HPMPITVRSRKPGPLTAPSEH; Peptide with targeting and/or antimicrobial activity) | S. mutans; also recorded: E. coli
23 | PF-C045 (FREGMGWPLSNEGSPTAPLPKHRNQV; Peptide with targeting and/or antimicrobial activity) | A. naeslundii; also recorded: T. denticola
24 | PF-C050 (QGLARPVLRRIPL; Peptide with targeting and/or antimicrobial activity) | A. naeslundii; also recorded: S. mutans
25 | PF-C063 (SHFRKGD; Peptide with targeting and/or antimicrobial activity) | A. naeslundii; also recorded: F. nucleatum; also recorded: S. mutans
26 | PF-C068 (LNLFASI; Peptide with targeting and/or antimicrobial activity) | A. naeslundii; also recorded: F. nucleatum; also recorded: S. mutans
27 | PF-C080 (INIPGLF; Peptide with targeting and/or antimicrobial activity) | A. naeslundii; also recorded: F. nucleatum; also recorded: S. mutans
28 | PF-C093 (EKLGTMV; Peptide with targeting and/or antimicrobial activity) | A. naeslundii; also recorded: F. nucleatum; also recorded: S. mutans
29 | PF-C134 (NELMKYPATLTATATTPGIKYSHLCSVCL; Peptide with targeting and/or antimicrobial activity) | A. naeslundii; also recorded: F. nucleatum; also recorded: P. gingivalis; also recorded: S. mutans; also recorded: T. denticola
30 | PF-C160 (AASGFTYCASNGVWHPY; Peptide with targeting and/or antimicrobial activity) | F. nucleatum
31 | PF-C259 (AEIQPHCLSVL; Peptide with targeting and/or antimicrobial activity) | F. nucleatum; also recorded: S. mutans
32 | PF-C271 (FFPSYYSIIITYF; Peptide with targeting and/or antimicrobial activity) | A. naeslundii; also recorded: F. nucleatum; also recorded: P. gingivalis; also recorded: S. mutans; also recorded: T. denticola
33 | PF-C273 (KNMLKRRMKQKRLFDEEDRLRVLSKYTKSYY; Peptide with targeting and/or antimicrobial activity) | A. naeslundii; also recorded: P. gingivalis; also recorded: S. mutans; also recorded: T. denticola
34 | PF-C285 (FTIIELKKQKIKHGENNKKTAHPLNEPFCARA; Peptide with targeting and/or antimicrobial activity) | A. naeslundii; also recorded: F. nucleatum; also recorded: P. gingivalis; also recorded: S. mutans; also recorded: T. denticola
